{Cy5.5} = Cy5.5 cyanine dye label
Legend:
[1] = Alkaline denaturing of probes, kinetic fluorescence; type: physicochemical; conditions: alkaline buffer
Method: Lastly, the probes' integrity was tested by alkaline denaturing. The probes were treated with alkaline buffer and kinetic detection of the fluorescence was performed. […] AB259.1, AB259.3 and AB259.5 gained 40%, 81%, and 85% of fluorescence, respectively.
(§1) All cell-free experiments were performed using the Bio-Tek Synergy 5 fluorescent plate reader. Before experiments, optimal excitation and emission wavelengths were determined. For this, excitation and emission were scanned in the ranges of 600-680 nm and 690-705 nm, respectively. The optimal excitation/emission was determined to be 665/703 nm. All kinetic and endpoint measurements were done in a total volume of 100 μl at 37° C. Unless stated otherwise, DNA substrate was used in final concentration 0.5 μM reconstituted in endonuclease activity assay (EAA) buffer (2 mM CaCl2, 5 mM MgCl2, 10 mM Tris-HCl, pH 7.4) in a 96-well plate. After measurement of starting fluorescence, DNase I or tested material (diluted 1:20 urine or 1:100 serum) were added to the reconstituted probe, rapidly mixed and fluorescence was monitored for up to 60 min with 30-sec intervals. In some instances, EDTA (final concentration 200 μM) or NaOH (50 mM) was added to terminate the reaction. For the experiments that involved assessment of fluorescence after DNA denaturing, probes were tested in Cepheid real-time PCR system using Cy5 setting (Sunnyvale, Calif.).

[2] = Baseline fluorescence of hairpin DNA probes; type: physicochemical; conditions: correlated with length of protruded DNA end; FIG. 1B
Description: It was impossible to determine if the background fluorescence was attributed to the probe or it originated from a partial degradation of the probe. Consequently, the NIRF probes were designed as hairpins to allow testing the integrity of DNA by its denaturing followed by reannealing. The use of hairpin also allows easy measurement of the maximum fluorescence of the probe. The distance between two fluorophores varied by changing of protruding DNA strand length from +0 (AB259.1 probe) to +5 (AB259.3 probe) or to +10 (AB259.5 probe) as shown in FIG. 1A. The baseline fluorescence of probe AB259.1 was 30% higher than negative control without a probe (FIG. 1B).
as §1

[3] = test system: WT and DNase I KO mice; assay: Intravital imaging of endonuclease activity in kidneys
Description: At the next step, WT and DNase I KO mice were anesthetized and intravenously administered with 50 nmol/kg of AB259.3 probe followed by intravital imaging using Xenogen-IVIS.
To additionally confirm preferential accumulation and processing of AB259.3 probe in kidneys, separate set of mice was deeply anesthetized and subjected to abdominal incision and real-time intravital visualization of left kidney while performing intravenous injection of AB259.3 probe. […] For this, DNase I KO animals were subjected to open surgery that was used to administer 5 μl DNase I (0.1 mg/ml) to subcapsular space of upper ventral zone of left kidney. To control effect of DNase I, additional WT and DNase I KO mice were injected with same volume of the vehicle. Immediately after injection, mice were injected with 50 nmol/kg of AB259.3 probe intravenously and then imaged in a Xenogen-IVIS.
Male DNase I KO mice and their WT counterparts at the age 8-10 weeks were used for all experiments. All procedures with mice were performed under general anesthesia with 50 mg/kg ketamine. For subcutaneous administration, mice were injected with 10 μl of 0.1 μM AB259.3 in the dorsal subcutaneous site. For systemic visualization, AB259.3 was injected intravenously at 50 nmol/kg in tail vein.
Imaging of live and euthanized mice or their isolated organs were performed using Xenogen IVIS Image System 200 (Caliper Life Sciences, Hopkinton, Mass.) equipped with Living Image® Software.

[4] = test system: NRK-52E cells; assay: Intracellular endonuclease activity in cultured cells, time-lapse microscopy; type: cell-based, rat; conditions: AB259.3/Lipofectamine LTX complexes
Method: To test whether AB259.3 probe may be delivered intracellularly and thus be used as an indicator of endonuclease activity in live cells, NRK-52E cells were transfected with of AB259.3/Lipofectamine LTX complexes and imaged by time-lapse epifluorescence microscopy every 10 min for 8 hours. A 2.5-3 times increased fluorescence reached plateau in 1 hour after transfection and the cells retained fluorescent dye for the duration of experiment (FIG. 4A). To induce activity of endonucleases, cells were treated with cisplatin or camptothecin and imaged by time-lapse microscopy for Cy5.5 fluorescence. […] Therefore, it was concluded that AB259.3 can be delivered and used for intracellular monitoring of endonuclease activity in live cells. To further determine whether AB259.3 probe can be used in other cell lines, several of them were tested (FIG. 4D). […] It was then determined whether the probe without the loop would be consumed by NRK-52E cells equally to the original loop probe. […] Finally, PCR was used to determine whether the DNA part (as opposed to the fluorophores) of the probes enters the cells in vivo and in vitro.
Rat proximal tubular epithelial NRK-52E cells were used to test the ability of AB259.3 probe to measure endonuclease activity. The cells were seeded in a 24-well plate at 50,000 cells per well in complete DMEM medium supplemented with 10% fetal bovine serum. Cells were transfected with the AB259.3 probe using Lipofectamin LTX and then subjected to spinning disk confocal fluorescent time-lapse microscopy in 628/40-692/40 spectrum every 10 min for 8 hours using Olympus IX-81 image system equipped with Hamamatsu ORCA-ER camera and LiveCell microenvironmental control chamber (Pathology Devices Inc., Westminster, Md.). In separate experiment, cells were treated with either 25 μM cisplatin or 50 μM camptothecin for 8 hours, followed by 1-hour transfection with AB259.3 probe and 8-hour time-lapse imaging session with 10-min intervals using the same microscopy system.

[5] = test system: WT and DNase I KO mice; assay: Intravital assessment in other organs (bilateral kidney ligation or cationic liposomes); conditions: imaging 3 hours after injection; FIGS. 10A and 10B
Method: To check an ability of probe to measure endonuclease activity on other organs, the renal distribution of AB259.3 probe was challenged by two complementary approaches. First group of mice was subjected to bilateral kidney ligation followed by intravital administration of AB259.3 probe and imaging in 3 hours after injection. […] Another group of mice was injected with AB259.3 probe packed in cationic liposomes in attempt to make probe delivery bioavailable to all organs and tissues and less specific to kidneys.
Male DNase I KO mice and their WT counterparts at the age 8-10 weeks were used for all experiments. All procedures with mice were performed under general anesthesia with 50 mg/kg ketamine. For subcutaneous administration, mice were injected with 10 μl of 0.1 μM AB259.3 in the dorsal subcutaneous site. For systemic visualization, AB259.3 was injected intravenously at 50 nmol/kg in tail vein. […] Bilateral kidney ligation was performed on anesthetized DNase I KO or WT mice. Renal pedicles were surgically ligated using 4.0 silk sutures. […]
Imaging of live and euthanized mice or their isolated organs were performed using Xenogen IVIS Image System 200 (Caliper Life Sciences, Hopkinton, Mass.) equipped with Living Image® Software. […] Quantification of the manually designated areas was performed based on average radiant efficiency with the fixed min-max dynamic range.

[6] = Heat denaturing and reannealing of hairpin probes (probe integrity); type: physicochemical; conditions: ROX internal reference; above background; FIG. 1C
Method: To ensure the integrity of the DNA probes, it was tested whether a heat denaturing of the hairpins would cause an increase in fluorescence, and if a reannealing would reverse it. To compensate for thermal change of fluorophore's emission, the ROX fluorophore was added to tested probes as an internal reference.
as §1

[7] = test system: WT and DNase I KO mice; assay: Cy5.5 fluorescence in organs isolated after intravenous probe injection (Xenogen-IVIS); type: in vivo, mouse; conditions: 50 nmol/kg intravenous, 1 or 3 hours after injection; FIG. 6
Method: In the next set of experiments, it was tested whether AB259.3 probe is suitable for in vivo measurement of DNase I and endonuclease activity in internal organs. For this, WT and DNase I KO mice were subjected to intravenous administration of AB259.3 probe (50 nmol/kg). The organs including brain, heart, lung, muscle, bone (femur), liver, pancreas, salivary gland, jejunum, spleen, kidney and testicles were collected in 1 or 3 hours after injection and measured for Cy5.5 fluorescence using a Xenogen-IVIS instrument. […] Kidneys, pancreas, salivary glands and lungs were among those that had the most prominent relative increase of Cy5.5 fluorescence in WT mice with markedly lower level of fluorescence in DNase I KO mice. Despite highest absolute fluorescence values in gut and liver, relative gain of fluorescence in these organs was quite modest due to the high background autofluorescence.
Kidney ischemia-reperfusion was performed as previously reported. […] The liposomes were prepared as described previously.

[8] = test system: WT mice; assay: Histological distribution of probe in kidneys; type: in vivo, mouse; conditions: 50 nmol/kg intravenous
Method: It was assessed whether AB259.3 probe is specifically accumulated in any renal compartments or its accumulation in the kidney is simply due to the excretion with urine. For this, WT mice were administered intravenously with 50 nmol/kg of AB259.3 probe and kidneys were collected in 1 or 3 hours, frozen, cryosectioned and examined under fluorescent microscope in 628/40-692/40 spectrum. […] Morphologically, fluorescence was detected mainly in membranous parts of the epithelial cells, such as basolateral and, to lesser extent, at apical surface.

## [Cy5.5]AACACTCCGATGAGTGTAGAATGT[Cy5.5] (DNA, 5' {Cy5.5}, 3' {Cy5.5}, backbone not given here) [AB259.3, hairpin DNA probe with Cy5.5 at both ends, protruding strand +5]
[1]
  gain of fluorescence on alkaline denaturing: 81%
[2]
  baseline fluorescence (in words): much higher levels of the baseline fluorescence
[3]; 50 nmol/kg intravenous, FIGS. 7A and 7B
  time to plateau of fluorescence in kidneys, intravital imaging: 10 min
[3]; 50 nmol/kg intravenous, FIGS. 7C and 7D
  retention of fluorescence by kidneys: at least 5 hours
[3]; abdominal incision, intravenous injection, FIG. 7E
  time to plateau of Cy5.5 fluorescence in exposed left kidney, real-time: 10 min
[4]
  time to plateau of fluorescence after transfection: 1 h
[4]; FIG. 4A
  increase of fluorescence in cells after transfection: 2.5-3 times
[5]
  probe accumulation after bilateral kidney ligation: accumulation in kidneys was completely abolished
[6]
  gain of fluorescence on heat denaturing: 2.8 times
[7]
  organ fluorescence after injection (in words): kidneys appeared to be the most visibly distinctive organ
[8]; 1 hour
  renal localisation of activated probe at 1 hour: cortical compartment, and mainly proximal tubules already contained significant amount of activated AB259.3 probe
[8]; 3 hours, FIG. 8
  renal localisation of activated probe at 3 hours: started to appear in medullar compartment and distal tubules

Source: patent US9650674B2, “Nucleic acid probes and methods of using the same” (Board of Trustees University of Arkansas, priority 2012, dated 2017)
